Experimental data reported in PubChem BioAssay AID342 (DTP/NCI, 2004).
“And” between values parts separate entries of the source, which are not always exact repeats. Identical values can stand only once.

System: Swiss mice, Sarcoma 180 sc, mean tumor weight T/C
Experiment: NCI In Vivo Anticancer Drug Screen. Data for tumor model Sarcoma 180 (subcutaneous) in Swiss mice
Conditions: endpoint: mean tumor weight, higher = larger tumour
Method in brief: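 Mice bearing transplanted tumors were treated with compound, and survival or tumor size was measured. Values are expressed as the treated-group measurement (T) divided by the vehicle-treated control measurement (C).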

SMILES: O=NN(CCCl)C(=O)NCCCl
- T/C (dose: 1.5 mg/kg/injection, schedule: Q01DX007 (ip), vehicle: saline): 27 % of control
- T/C (dose: 2.6 mg/kg/injection, schedule: Q01DX007 (ip), vehicle: saline): 79 % of control
- T/C (dose: 3.0 mg/kg/injection, schedule: Q01DX007 (ip), vehicle: saline): 44 % of control
- T/C (dose: 3.0 mg/kg/injection, schedule: Q01DX007 (oral), vehicle: carboxymethylcellulose (CMC)): 60 % of control
- T/C (dose: 4.0 mg/kg/injection, schedule: Q01DX007 (ip), vehicle: carboxymethylcellulose (CMC)): 75 % of control
- T/C (dose: 4.3 mg/kg/injection, schedule: Q01DX007 (ip), vehicle: saline): 90 % of control
- T/C (dose: 6.0 mg/kg/injection, schedule: Q01DX007 (ip), vehicle: carboxymethylcellulose (CMC)): 46 % of control and 58 % of control
- T/C (dose: 6.0 mg/kg/injection, schedule: Q01DX007 (ip), vehicle: saline): 47 % of control
- T/C (dose: 6.0 mg/kg/injection, schedule: Q01DX007 (oral), vehicle: carboxymethylcellulose (CMC)): 32 % of control
- T/C (dose: 7.2 mg/kg/injection, schedule: Q01DX007 (ip), vehicle: saline): 62 % of control
- T/C (dose: 8.0 mg/kg/injection, schedule: Q01DX007 (ip), vehicle: carboxymethylcellulose (CMC)): 35 % of control
- T/C (dose: 10.0 mg/kg/injection, schedule: Q01DX007 (ip), vehicle: carboxymethylcellulose (CMC)): 27 % of control
- T/C (dose: 12.0 mg/kg/injection, schedule: Q01DX007 (ip), vehicle: carboxymethylcellulose (CMC)): 10 % of control
- T/C (dose: 12.0 mg/kg/injection, schedule: Q01DX007 (ip), vehicle: saline): 36 % of control and 44 % of control
- T/C (dose: 12.0 mg/kg/injection, schedule: Q01DX007 (oral), vehicle: carboxymethylcellulose (CMC)): 12 % of control
- T/C (dose: 20.0 mg/kg/injection, schedule: Q01DX007 (ip), vehicle: saline): 24 % of control
- T/C (dose: 24.0 mg/kg/injection, schedule: Q01DX007 (oral), vehicle: carboxymethylcellulose (CMC)): 6 % of control

SMILES: O=c1[nH]c(=O)c2n[nH]nc2[nH]1
- T/C (dose: 0.25 mg/kg/injection, schedule: Q#A X014 (ip), vehicle: carboxymethylcellulose (CMC)): 122 % of control
- T/C (dose: 0.5 mg/kg/injection, schedule: Q#A X014 (ip), vehicle: carboxymethylcellulose (CMC)): 102 % of control
- T/C (dose: 2.0 mg/kg/injection, schedule: Q#A X014 (ip), vehicle: carboxymethylcellulose (CMC)): 114 % of control
- T/C (dose: 86.28 mg/kg/injection, schedule: Q01DX007 (ip), vehicle: carboxymethylcellulose (CMC)): 68 % of control
- T/C (dose: 172.57 mg/kg/injection, schedule: Q01DX007 (ip), vehicle: carboxymethylcellulose (CMC)): 49 % of control
- T/C (dose: 345.15 mg/kg/injection, schedule: Q01DX007 (ip), vehicle: carboxymethylcellulose (CMC)): 102 % of control
- T/C (dose: 690.3 mg/kg/injection, schedule: Q01DX007 (ip), vehicle: carboxymethylcellulose (CMC)): 51 % of control

SMILES: C/C=C1\CN(C)[C@H]2Cc3c([nH]c4ccccc34)[C@@H](c3cc4[nH]c5c(c4cc3OC)CCN3C[C@H]4C[C@H](CC)[C@H]3[C@@]5(C(=O)OC)C4)C[C@H]1C2C(=O)OC (some centres undefined)
- T/C (dose: 35.0 mg/kg/injection, schedule: Q01DX007 (ip), vehicle: water): 58 % of control
- T/C (dose: 50.0 mg/kg/injection, schedule: Q01DX007 (ip), vehicle: water): 74 % of control and 90 % of control
- T/C (dose: 70.0 mg/kg/injection, schedule: Q01DX007 (ip), vehicle: water): 38 % of control and 59 % of control
- T/C (dose: 90.0 mg/kg/injection, schedule: Q01DX007 (ip), vehicle: water): 30 % of control

SMILES: Nc1ncnc2[nH]ncc12
- T/C (dose: 0.55 mg/kg/injection, schedule: Q#A X014 (ip), vehicle: carboxymethylcellulose (CMC)): 74 % of control
- T/C (dose: 1.1 mg/kg/injection, schedule: Q#A X014 (ip), vehicle: carboxymethylcellulose (CMC)): 79 % of control
- T/C (dose: 2.2 mg/kg/injection, schedule: Q#A X014 (ip), vehicle: carboxymethylcellulose (CMC)): 76 % of control
- T/C (dose: 4.4 mg/kg/injection, schedule: Q#A X014 (ip), vehicle: carboxymethylcellulose (CMC)): 87 % of control

SMILES: O=S(=O)(O)C(Nc1ccccc1)c1ccccc1 (centres undefined)
- T/C (dose: 24.0 mg/kg/injection, schedule: Q01DX007 (ip), vehicle: carboxymethylcellulose (CMC)): 80 % of control
- T/C (dose: 36.0 mg/kg/injection, schedule: Q01DX007 (ip), vehicle: carboxymethylcellulose (CMC)): 94 % of control
- T/C (dose: 54.0 mg/kg/injection, schedule: Q01DX007 (ip), vehicle: carboxymethylcellulose (CMC)): 92 % of control
- T/C (dose: 81.0 mg/kg/injection, schedule: Q01DX007 (ip), vehicle: carboxymethylcellulose (CMC)): 93 % of control
- T/C (dose: 162.0 mg/kg/injection, schedule: Q01DX007 (ip), vehicle: carboxymethylcellulose (CMC)): 113 % of control
- T/C (dose: 324.0 mg/kg/injection, schedule: Q01DX007 (ip), vehicle: carboxymethylcellulose (CMC)): 84 % of control

SMILES: O=CNc1c(Cl)c(Cl)c2c(c1Cl)Cc1cc(Cl)ccc1-2
- T/C (dose: 5.0 mg/kg/injection, schedule: Q01DX007 (ip), vehicle: carboxymethylcellulose (CMC)): 70 % of control
- T/C (dose: 15.0 mg/kg/injection, schedule: Q01DX007 (ip), vehicle: carboxymethylcellulose (CMC)): 60 % of control
- T/C (dose: 30.0 mg/kg/injection, schedule: Q01DX007 (ip), vehicle: carboxymethylcellulose (CMC)): 34 % of control
- T/C (dose: 49.0 mg/kg/injection, schedule: Q01DX007 (ip), vehicle: carboxymethylcellulose (CMC)): 63 % of control
- T/C (dose: 73.0 mg/kg/injection, schedule: Q01DX007 (ip), vehicle: carboxymethylcellulose (CMC)): 64 % of control
- T/C (dose: 110.0 mg/kg/injection, schedule: Q01DX007 (ip), vehicle: carboxymethylcellulose (CMC)): 51 % of control
- T/C (dose: 165.0 mg/kg/injection, schedule: Q01DX007 (ip), vehicle: carboxymethylcellulose (CMC)): 5 % of control

SMILES: CCOC(=O)C1=C(C)NC(C)=C(C(=O)OCC)C1C
- T/C (dose: 3.1 mg/kg/injection, schedule: Q01DX007 (ip), vehicle: other): 50 % of control
- T/C (dose: 6.25 mg/kg/injection, schedule: Q01DX007 (ip), vehicle: other): 33 % of control
- T/C (dose: 31.2 mg/kg/injection, schedule: Q01DX007 (ip), vehicle: other): 42 % of control
- T/C (dose: 31.25 mg/kg/injection, schedule: Q01DX007 (ip), vehicle: other): 60 % of control
- T/C (dose: 62.5 mg/kg/injection, schedule: Q01DX007 (oral), vehicle: other): 57 % of control
- T/C (dose: 62.5 mg/kg/injection, schedule: Q01DX007 (sc), vehicle: other): 98 % of control
- T/C (dose: 62.5 mg/kg/injection, schedule: Q02DX004 (ip), vehicle: other): 60 % of control
- T/C (dose: 62.5 mg/kg/injection, schedule: Q03DX003 (ip), vehicle: other): 60 % of control
- T/C (dose: 100.0 mg/kg/injection, schedule: Q01DX007 (ip), vehicle: other): 69 % of control
- T/C (dose: 125.0 mg/kg/injection, schedule: Q01DX007 (oral), vehicle: other): 84 % of control
- T/C (dose: 125.0 mg/kg/injection, schedule: Q01DX007 (sc), vehicle: other): 57 % of control
- T/C (dose: 125.0 mg/kg/injection, schedule: Q02DX004 (ip), vehicle: other): 50 % of control
- T/C (dose: 125.0 mg/kg/injection, schedule: Q03DX003 (ip), vehicle: other): 60 % of control
- T/C (dose: 175.0 mg/kg/injection, schedule: Q01DX007 (ip), vehicle: other): 29 % of control
- T/C (dose: 250.0 mg/kg/injection, schedule: Q01DX007 (oral), vehicle: other): 76 % of control
- T/C (dose: 250.0 mg/kg/injection, schedule: Q01DX007 (sc), vehicle: other): 60 % of control
- T/C (dose: 250.0 mg/kg/injection, schedule: Q02DX004 (ip), vehicle: other): 36 % of control
- T/C (dose: 250.0 mg/kg/injection, schedule: Q03DX003 (ip), vehicle: other): 54 % of control

SMILES: Cc1cc(=O)[nH]c(N=Nc2c(O)[nH]c3ccccc23)n1
- T/C (dose: 222.0 mg/kg/injection, schedule: Q01DX007 (ip), vehicle: saline): 58 % of control
- T/C (dose: 333.0 mg/kg/injection, schedule: Q01DX007 (ip), vehicle: saline): 75 % of control
- T/C (dose: 500.0 mg/kg/injection, schedule: Q01DX007 (ip), vehicle: saline): 43 % of control
- T/C (dose: 750.0 mg/kg/injection, schedule: Q01DX007 (ip), vehicle: saline): 59 % of control

SMILES: C=C(C)C(=O)OCC1CO1 (centres undefined)
- T/C (dose: 250.0 mg/kg/injection, schedule: Q01DX007 (ip), vehicle: other): 97 % of control
- T/C (dose: 375.0 mg/kg/injection, schedule: Q01DX007 (ip), vehicle: other): 74 % of control
